{"source": "patent US20130225694A1", "about": "“COMPOSITIONS AND METHODS OF INHIBITING RETINAL DEGENERATION” (Oklahoma Medical Research Foundation, priority 2012, published 2013)", "key": {"[1]": {"test_system": "cone photoreceptors", "experiment": "Cone function by single-flash photopic and flicker-flash ERG in rats", "type": "in vivo, rat", "details": "50 mg/kg, 60 minutes after administration, rod-suppressing background", "experimental": "To evaluate cone function under conditions in which rod recovery is suppressed, rats were injected with PBN (50 mg/kg) or saline 60 minutes prior to recording single-flash photopic and flicker-flash ERG recordings. Rats were placed under a steady adapting field of 1.7 log cd·s/m^2 for at least 7 minutes. A single flash of 3.3 log cd·s/m^2 was presented under the same adapting field to elicit a maximal cone response. Cone responses were further evaluated by presenting 1.2 log cd·s/m^2 stimuli flickering at frequencies of 3-, 10-, 20-, and 30-Hz under the same adapting field.\nTo assess the effect of PBN administration on cone function under conditions when rod recovery was suppressed, single- and flicker-flash ERG recordings were performed under a steady, rod-suppressing background illumination 60 minutes after PBN administration."}, "[2]": {"molecular_target": "T1, chicken RPE65 (Gallus gallus, UniProt Q9YGX2)", "T1 construct": "made in house; host or cells: 293A cells infected with chicken RPE65 adenovirus; total lysate used", "T1 sequence (Q9YGX2 1-533)": "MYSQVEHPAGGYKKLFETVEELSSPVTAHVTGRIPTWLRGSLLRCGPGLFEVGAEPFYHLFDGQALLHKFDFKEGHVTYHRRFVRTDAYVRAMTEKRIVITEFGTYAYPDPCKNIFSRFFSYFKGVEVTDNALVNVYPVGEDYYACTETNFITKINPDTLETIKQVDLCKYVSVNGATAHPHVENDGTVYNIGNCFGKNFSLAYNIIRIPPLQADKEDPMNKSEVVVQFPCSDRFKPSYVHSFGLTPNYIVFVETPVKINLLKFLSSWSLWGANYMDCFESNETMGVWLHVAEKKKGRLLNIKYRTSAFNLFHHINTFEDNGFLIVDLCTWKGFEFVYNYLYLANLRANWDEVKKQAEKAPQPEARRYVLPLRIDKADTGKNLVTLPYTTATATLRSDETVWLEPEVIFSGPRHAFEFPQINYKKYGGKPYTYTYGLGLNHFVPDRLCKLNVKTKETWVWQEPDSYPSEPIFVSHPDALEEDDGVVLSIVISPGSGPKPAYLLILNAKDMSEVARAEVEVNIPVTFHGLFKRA", "experiment": "Liposome-based isomerohydrolase assay with recombinant chicken RPE65", "type": "biochemical"}, "[3]": {"test_system": "rod photoreceptors", "experiment": "Recovery of rod photoresponses after bleaching (dark adaptation ERG) in rats", "type": "in vivo, rat", "details": "50 mg/kg IP", "experimental": "Possible defects in the visual cycle were analyzed by measuring the time course of dark adaptation (recovery of rod photoreceptor sensitivity) following a bleaching light exposure. Rats were fully dark-adapted and injected intraperitoneally with PBN (50 mg/kg) or saline. Full-field scotopic ERGs for both eyes were recorded after 3 hours of PBN injection. A single test flash of 2.3 log cd·s/m^2 was presented to elicit the rod a-wave response under fully dark-adapted conditions. Rats were then exposed to a steady field of log 2.3 cd·s/m^2 for 2 minutes in the Ganzfeld dome to bleach rod photoreceptors. Immediately following the bleaching period (time=0 minutes) and every 10 minutes thereafter (time=10, 20, 30, 40, 50, and 60 minutes), the same test flash of 2.3 log cd·s/m^2 was presented. The a-wave responses at the indicated times after bleaching were normalized to the initial dark-adapted response for each rat.\nEffect of PBN on the rate of recovery of rod photoresponses: dark adaptation ERG—The damaging effect of bright light requires a functional rhodopsin photopigment (23). It is well established that PBN protects against light damage (1), and the inventors previously speculated that PBN, as part of its protective mechanism, might down-regulate rhodopsin regeneration rate (2). […]"}}}
{"smiles": "CC(C)(C)/[N+]([O-])=C/c1ccccc1", "note": "[Compound 1, α-phenyl-N-tert-butyl nitrone]", "values": [{"measurement": "effect on cone function", "setting": "[1]", "result": "not affected"}, {"measurement": "type of inhibition", "setting": "[2]; Lineweaver-Burk, with and without 0.1 mM PBN", "result": "uncompetitive inhibition"}, {"measurement": "Ki", "setting": "[2]; all-trans-retinyl palmitate liposomes, 0.1 mM PBN, read-out: Ki (inhibition constant, uncompetitive formula)", "result": "53 ± 7", "unit": "µM"}, {"measurement": "fully dark-adapted a-wave response", "setting": "[3]; 2.3 log cd·s/m^2 test flash before bleach, n=4", "result": "−441.5±70.66", "unit": "μV"}, {"measurement": "recovery of the initial fully dark-adapted rod response", "setting": "[3]; 40 minutes after the bleaching illumination", "result": 25, "unit": "%"}]}
